Test results from ChEMBL document CHEMBL5034031, “Discovery of Next-Generation Tropomyosin Receptor Kinase Inhibitors for Combating Multiple Resistance Associated with Protein Mutation” (J Med Chem, 2021).

Tests used:
[1] = Metabolic stability in human liver microsomes assessed as half life at 1 uM measured upto 90 mins in presence of NADPH regenerating system by LC-MS/MS analysis; format: ADME, Microsome
[2] = Volume of distribution in Beagle dog at 1 mg/kg, iv measured upto 24 hrs by LC-MS/MS analysis; format: ADME, organism-based, Canis lupus familiaris; settings: in vivo, read-out: Vz
BaF3 [3] = test: Antitumor activity against mouse BAF3 cells harboring TMP3 fused wild type TRKA xenografted in BALB/c nude mouse assessed as tumor growth inhibition at 5 mg/kg, po administered twice daily for 12 to […] consecutive days; format: functional; settings: time 12-14 day, read-out: TGI
[4] = biological target: SRSF protein kinase 1 (Homo sapiens) (UniProt Q96SB4); test: Inhibition of SRPK1 (unknown origin) at 1 uM relative to control
BaF3 [5] = test: Antitumor activity against mouse BAF3 cells harboring TMP3 fused TRKA G595R mutant xenografted in BALB/c nude mouse assessed as tumor growth inhibition at 30 mg/kg, po administered twice daily for 12 to […] consecutive days; format: functional; settings: time 12-14 day, read-out: TGI
[6] = biological target: RAC-alpha serine/threonine-protein kinase (Homo sapiens) (UniProt P31749); test: Inhibition of AKT1 (unknown origin) at 1 uM relative to control
[7] = biological target: Inhibitor of nuclear factor kappa-B kinase subunit beta (Homo sapiens) (UniProt O14920); test: Inhibition of IKBKB (unknown origin) at 1 uM relative to control
[8] = biological target: Insulin-like growth factor 1 receptor (Homo sapiens) (UniProt P08069); test: Inhibition of IGF1R (unknown origin) at 1 uM relative to control
[9] = biological target: [Pyruvate dehydrogenase (acetyl-transferring)] kinase isozyme 1, mitochondrial (Homo sapiens) (UniProt Q15118); test: Inhibition of PDK1 (unknown origin) at 1 uM relative to control
[10] = AUC(0 to infinity) in Sprague-Dawley rat at 5 mg/kg, ig measured upto 24 hrs by LC-MS/MS analysis; format: ADME, organism-based; design: route […], dose 5 mg/kg, time <=24; settings: in vivo, po
[11] = AUC(0 to infinity) in Beagle dog at 1 mg/kg, iv measured upto 24 hrs by LC-MS/MS analysis; format: ADME, organism-based, Canis lupus familiaris; design: route intravenous, dose 1 mg/kg, time <=24; settings: in vivo
BaF3 [12] = test: Antitumor activity against mouse BAF3 cells harboring ETV6 fused TRKC G623R mutant xenografted in BALB/c nude mouse assessed as tumor growth inhibition at 30 mg/kg, po administered twice daily for 12 to […] consecutive days; format: functional; settings: time 12-14 day, read-out: TGI
[13] = biological target: BDNF/NT-3 growth factors receptor (Homo sapiens) (UniProt Q16620); test: Inhibition of TRKB (unknown origin) at 1 uM relative to control
[14] = biological target: NT-3 growth factor receptor (Homo sapiens, UniProt Q16288, G623R)
[15] = AUC(0 to infinity) in Sprague-Dawley rat at 1 mg/kg, iv measured upto 24 hrs by LC-MS/MS analysis; format: ADME, organism-based; design: route intravenous, dose 1 mg/kg, time <=24; settings: in vivo
BaF3 [16] = test: Antiproliferative activity against mouse BaF3 cells transfected with ETV6-wild type TRKB assessed as cell viability incubated for 72 hrs by CCK8 assay; format: functional, cell-based; settings: BaF3, 72 h
[17] = biological target: Serine/threonine-protein kinase PLK1 (Homo sapiens) (UniProt P53350); test: Inhibition of PLK1 (unknown origin) at 1 uM relative to control
[18] = Clearance in Sprague-Dawley rat at 5 mg/kg, ig measured upto 24 hrs by LC-MS/MS analysis; format: ADME, organism-based; settings: in vivo, po
[19] = Cmax in Beagle dog at 1 mg/kg, iv measured upto 24 hrs by LC-MS/MS analysis; format: ADME, organism-based, Canis lupus familiaris; design: route intravenous, dose 1 mg/kg, time <=24; settings: in vivo
BaF3 [20] = test: Antiproliferative activity against mouse BAF3 cells transfected with LMNA-TRKA G595R mutant assessed as cell viability incubated for 72 hrs by CCK8 assay; format: functional, cell-based; settings: BaF3, 72 h
[21] = biological target: Mast/stem cell growth factor receptor Kit (Homo sapiens) (UniProt P10721); test: Inhibition of KIT (unknown origin) at 1 uM relative to control
[22] = biological target: Homeodomain-interacting protein kinase 1 (Homo sapiens) (UniProt Q86Z02); test: Inhibition of HIPK1 (unknown origin) at 1 uM relative to control
[23] = biological target: Platelet-derived growth factor receptor alpha (Homo sapiens) (UniProt P16234); test: Inhibition of PDGFRalpha (unknown origin) at 1 uM relative to control
[24] = Toxicity in BALB/c nude mouse xenografted with mouse BAF3 cells harboring TMP3 fused TRKA G595R mutant assessed as body weight loss at 30 mg/kg, po administered twice daily for 12 to 14 consecutive days; format: organism-based; settings: in vivo, time 12-14 day
[25] = biological target: Proto-oncogene tyrosine-protein kinase Src (Homo sapiens) (UniProt P12931); test: Inhibition of SRC (unknown origin) at 1 uM relative to control
[26] = biological target: Epidermal growth factor receptor (Homo sapiens) (UniProt P00533); test: Inhibition of EGFR (unknown origin) at 1 uM relative to control
[27] = Toxicity in BALB/c nude mouse xenografted with mouse BAF3 cells harboring TMP3 fused TRKA G595R mutant assessed as mortality at 30 mg/kg, po administered twice daily for 12 to […] consecutive days; format: organism-based; settings: in vivo, time 12-14 day
[28] = Toxicity in BALB/c mouse xenografted with mouse BAF3 cells harboring ETV6 fused TRKC G623R mutant assessed as mortality at 15 to 30 mg/kg, po administered twice daily for 12 to […] consecutive days; format: organism-based; settings: in vivo, dose lower 15 mg/kg, time lower 12 day, dose upper 30 mg/kg, time upper 14 day
[29] = Oral bioavailability in Sprague-Dawley rat at 5 mg/kg measured upto 24 hrs by LC-MS/MS analysis; format: ADME, organism-based; settings: in vivo
[30] = biological target: Tyrosine-protein kinase ZAP-70 (Homo sapiens) (UniProt P43403); test: Inhibition of ZAP70 (unknown origin) at 1 uM relative to control
[31] = Volume of distribution in Sprague-Dawley rat 1 mg/kg, iv measured upto 24 hrs by LC-MS/MS analysis; format: ADME, organism-based; settings: in vivo, read-out: Vz
[32] = biological target: Rho-associated protein kinase 1 (Homo sapiens) (UniProt Q13464); test: Inhibition of ROCK1 (unknown origin) at 1 uM relative to control
BaF3 [33] = format: functional, cell-based; settings: Mus musculus, BaF3, 72 h
[34] = biological target: Voltage-gated inwardly rectifying potassium channel KCNH2 (Homo sapiens, UniProt Q12809); test: Inhibition of hERG
[35] = biological target: Proto-oncogene tyrosine-protein kinase ROS (Homo sapiens) (UniProt P08922); test: Inhibition of ROS1 (unknown origin) at 1 uM relative to control
[36] = biological target: Tyrosine-protein kinase receptor UFO (Homo sapiens) (UniProt P30530); test: Inhibition of AXL (unknown origin) at 1 uM relative to control
[37] = biological target: Tyrosine-protein kinase JAK1 (Homo sapiens) (UniProt P23458); test: Inhibition of JAK1 (unknown origin) at 1 uM relative to control
[38] = biological target: High affinity nerve growth factor receptor (Homo sapiens, UniProt P04629); test: Inhibition of TRKA (unknown origin) at 1 uM relative to control
BaF3 [39] = test: animal or person; format: functional; settings: Mus musculus, BaF3, po; dose 15 mg/kg; time 12-14 day; read-out: TGI

Sequence of Voltage-gated inwardly rectifying potassium channel KCNH2 (Q12809 whole entry): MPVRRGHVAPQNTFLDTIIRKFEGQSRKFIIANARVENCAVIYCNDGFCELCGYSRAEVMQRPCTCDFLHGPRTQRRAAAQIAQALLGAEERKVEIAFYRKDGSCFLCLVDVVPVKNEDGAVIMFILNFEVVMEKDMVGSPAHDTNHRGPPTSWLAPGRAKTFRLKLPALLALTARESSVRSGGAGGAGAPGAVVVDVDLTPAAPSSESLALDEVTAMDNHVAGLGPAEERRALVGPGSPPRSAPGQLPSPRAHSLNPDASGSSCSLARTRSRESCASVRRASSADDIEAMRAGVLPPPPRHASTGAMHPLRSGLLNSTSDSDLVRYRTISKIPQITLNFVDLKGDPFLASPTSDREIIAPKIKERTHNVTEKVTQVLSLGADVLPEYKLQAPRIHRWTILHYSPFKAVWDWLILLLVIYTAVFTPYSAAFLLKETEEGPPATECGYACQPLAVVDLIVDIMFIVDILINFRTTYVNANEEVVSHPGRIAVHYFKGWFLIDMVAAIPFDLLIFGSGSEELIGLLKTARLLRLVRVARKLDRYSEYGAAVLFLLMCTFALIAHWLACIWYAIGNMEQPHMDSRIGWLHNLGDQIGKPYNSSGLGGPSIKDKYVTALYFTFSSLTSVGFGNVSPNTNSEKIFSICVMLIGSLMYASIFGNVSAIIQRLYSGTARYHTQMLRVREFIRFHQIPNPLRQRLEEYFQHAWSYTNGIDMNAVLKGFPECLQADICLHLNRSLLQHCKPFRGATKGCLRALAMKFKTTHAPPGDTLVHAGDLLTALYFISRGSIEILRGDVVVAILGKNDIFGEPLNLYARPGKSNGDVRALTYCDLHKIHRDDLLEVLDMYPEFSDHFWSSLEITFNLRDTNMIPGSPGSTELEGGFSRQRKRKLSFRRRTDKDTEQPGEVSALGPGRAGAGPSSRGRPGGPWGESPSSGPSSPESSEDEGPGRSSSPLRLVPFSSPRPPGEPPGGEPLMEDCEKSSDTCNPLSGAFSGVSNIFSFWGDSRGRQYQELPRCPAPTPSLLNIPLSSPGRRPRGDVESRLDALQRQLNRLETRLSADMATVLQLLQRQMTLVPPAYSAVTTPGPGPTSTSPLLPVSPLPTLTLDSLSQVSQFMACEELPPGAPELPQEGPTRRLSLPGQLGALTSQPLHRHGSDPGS
Sequence of Tyrosine-protein kinase receptor UFO (Homo sapiens) (P30530 whole entry): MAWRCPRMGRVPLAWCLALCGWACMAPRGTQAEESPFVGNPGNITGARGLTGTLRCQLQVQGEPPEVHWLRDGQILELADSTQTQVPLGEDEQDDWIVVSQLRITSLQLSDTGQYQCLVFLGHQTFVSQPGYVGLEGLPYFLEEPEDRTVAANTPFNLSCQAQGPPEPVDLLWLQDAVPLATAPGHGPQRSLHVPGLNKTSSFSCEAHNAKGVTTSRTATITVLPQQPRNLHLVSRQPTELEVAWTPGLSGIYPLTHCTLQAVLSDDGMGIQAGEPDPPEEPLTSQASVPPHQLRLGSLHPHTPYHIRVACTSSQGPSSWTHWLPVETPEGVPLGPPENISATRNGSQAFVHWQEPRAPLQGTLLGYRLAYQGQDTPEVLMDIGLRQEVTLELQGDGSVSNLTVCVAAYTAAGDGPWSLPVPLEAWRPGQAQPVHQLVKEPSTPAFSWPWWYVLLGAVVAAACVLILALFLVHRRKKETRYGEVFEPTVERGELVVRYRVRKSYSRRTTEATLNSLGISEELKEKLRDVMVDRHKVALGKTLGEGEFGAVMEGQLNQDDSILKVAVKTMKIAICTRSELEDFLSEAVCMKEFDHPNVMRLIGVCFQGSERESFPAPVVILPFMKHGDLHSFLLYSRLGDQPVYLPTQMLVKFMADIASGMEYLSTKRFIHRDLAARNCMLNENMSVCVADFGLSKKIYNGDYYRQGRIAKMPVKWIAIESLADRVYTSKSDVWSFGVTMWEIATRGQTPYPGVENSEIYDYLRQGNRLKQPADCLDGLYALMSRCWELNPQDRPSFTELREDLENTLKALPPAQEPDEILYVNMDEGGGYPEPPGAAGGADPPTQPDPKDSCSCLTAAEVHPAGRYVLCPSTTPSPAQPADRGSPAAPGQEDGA
Sequence of RAC-alpha serine/threonine-protein kinase (Homo sapiens) (P31749 whole entry): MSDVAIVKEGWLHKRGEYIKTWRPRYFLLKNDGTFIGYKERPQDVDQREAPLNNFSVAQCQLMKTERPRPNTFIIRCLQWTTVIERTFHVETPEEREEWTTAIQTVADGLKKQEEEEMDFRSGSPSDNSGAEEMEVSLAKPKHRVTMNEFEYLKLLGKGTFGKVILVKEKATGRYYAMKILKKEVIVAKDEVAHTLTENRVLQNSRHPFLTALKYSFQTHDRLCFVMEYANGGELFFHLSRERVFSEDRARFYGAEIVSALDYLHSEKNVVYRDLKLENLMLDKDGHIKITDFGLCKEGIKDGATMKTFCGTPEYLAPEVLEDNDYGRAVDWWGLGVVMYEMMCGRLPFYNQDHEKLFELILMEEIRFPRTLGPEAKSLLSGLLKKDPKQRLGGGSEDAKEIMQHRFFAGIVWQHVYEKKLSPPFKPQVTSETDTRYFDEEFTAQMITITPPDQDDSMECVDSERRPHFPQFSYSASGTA
Sequence of Inhibitor of nuclear factor kappa-B kinase subunit beta (Homo sapiens) (O14920 whole entry): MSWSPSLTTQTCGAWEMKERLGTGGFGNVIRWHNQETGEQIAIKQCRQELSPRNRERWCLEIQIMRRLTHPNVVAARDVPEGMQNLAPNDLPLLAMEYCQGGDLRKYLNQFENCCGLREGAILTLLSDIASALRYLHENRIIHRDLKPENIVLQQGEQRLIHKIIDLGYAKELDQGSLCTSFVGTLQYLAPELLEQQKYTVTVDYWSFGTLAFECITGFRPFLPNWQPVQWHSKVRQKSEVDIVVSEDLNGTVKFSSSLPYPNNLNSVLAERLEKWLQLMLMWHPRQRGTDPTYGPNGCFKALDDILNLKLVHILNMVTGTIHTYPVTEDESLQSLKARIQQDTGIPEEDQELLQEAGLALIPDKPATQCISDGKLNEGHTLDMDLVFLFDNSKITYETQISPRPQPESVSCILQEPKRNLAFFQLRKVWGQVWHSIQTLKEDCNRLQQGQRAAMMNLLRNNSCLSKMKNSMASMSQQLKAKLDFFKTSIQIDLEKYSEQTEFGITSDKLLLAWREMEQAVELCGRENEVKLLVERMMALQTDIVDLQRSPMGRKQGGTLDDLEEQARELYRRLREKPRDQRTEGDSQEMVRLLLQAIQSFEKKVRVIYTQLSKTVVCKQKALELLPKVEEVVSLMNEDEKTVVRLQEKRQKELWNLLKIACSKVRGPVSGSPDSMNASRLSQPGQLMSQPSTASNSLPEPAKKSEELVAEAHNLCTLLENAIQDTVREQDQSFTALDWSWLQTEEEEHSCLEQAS
Sequence of Insulin-like growth factor 1 receptor (Homo sapiens) (P08069 31-736 limits assumed): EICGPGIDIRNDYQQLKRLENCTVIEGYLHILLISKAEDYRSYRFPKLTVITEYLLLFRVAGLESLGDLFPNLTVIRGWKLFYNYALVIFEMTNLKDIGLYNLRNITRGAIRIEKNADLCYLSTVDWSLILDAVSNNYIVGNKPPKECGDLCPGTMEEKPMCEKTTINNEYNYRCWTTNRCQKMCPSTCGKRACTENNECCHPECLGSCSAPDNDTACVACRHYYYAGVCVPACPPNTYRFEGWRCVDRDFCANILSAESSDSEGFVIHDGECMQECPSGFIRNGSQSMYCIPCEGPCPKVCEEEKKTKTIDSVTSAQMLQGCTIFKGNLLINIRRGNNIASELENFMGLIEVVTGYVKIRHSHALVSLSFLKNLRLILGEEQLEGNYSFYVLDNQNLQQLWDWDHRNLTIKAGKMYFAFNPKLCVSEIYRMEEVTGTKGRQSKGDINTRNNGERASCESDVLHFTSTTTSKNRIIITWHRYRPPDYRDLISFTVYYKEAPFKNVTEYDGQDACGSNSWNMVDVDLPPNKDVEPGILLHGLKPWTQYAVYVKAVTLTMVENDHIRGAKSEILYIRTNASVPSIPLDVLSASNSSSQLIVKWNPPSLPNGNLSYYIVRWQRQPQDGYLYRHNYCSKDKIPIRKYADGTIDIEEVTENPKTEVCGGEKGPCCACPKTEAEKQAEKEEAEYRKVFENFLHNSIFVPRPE
Sequence of Insulin-like growth factor 1 receptor (Homo sapiens) (P08069 741-1367 limits assumed): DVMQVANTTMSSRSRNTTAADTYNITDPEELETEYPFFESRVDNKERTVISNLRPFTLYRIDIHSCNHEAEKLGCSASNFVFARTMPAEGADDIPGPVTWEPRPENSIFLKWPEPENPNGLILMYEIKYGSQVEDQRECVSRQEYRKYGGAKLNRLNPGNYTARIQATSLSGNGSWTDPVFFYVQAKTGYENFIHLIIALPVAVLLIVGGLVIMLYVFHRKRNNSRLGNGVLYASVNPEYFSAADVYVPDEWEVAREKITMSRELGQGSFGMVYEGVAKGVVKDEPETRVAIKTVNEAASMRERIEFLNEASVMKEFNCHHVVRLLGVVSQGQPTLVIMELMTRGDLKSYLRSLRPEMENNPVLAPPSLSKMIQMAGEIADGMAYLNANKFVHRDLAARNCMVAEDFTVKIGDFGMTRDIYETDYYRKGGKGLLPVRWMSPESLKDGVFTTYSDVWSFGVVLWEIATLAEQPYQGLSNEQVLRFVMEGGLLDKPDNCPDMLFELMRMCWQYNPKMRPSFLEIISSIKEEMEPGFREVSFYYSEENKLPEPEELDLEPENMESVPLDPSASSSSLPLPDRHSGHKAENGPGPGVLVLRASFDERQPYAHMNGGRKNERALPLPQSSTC

## C[C@@H](Nc1ccn2ncc(-c3cnn(CCO)c3)c2n1)c1cc(F)ccc1OCC(F)F
[1]
  half-life at 1 µM: 5.25 h
[2]
  Vd: 4.94 L/kg
BaF3 [3]
  inhibition in vivo at 5 mg/kg: 64%
[4]
  inhibition: < 50%
BaF3 [5]
  inhibition in vivo at 30 mg/kg: 61%
[6]
  inhibition: < 50%
[7]
  inhibition: < 50%
[8]
  inhibition: < 50%
[9]
  inhibition: < 50%
[10]
  AUC(0-inf): 540 ng·h/mL
[11]
  AUC(0-inf): 2140 ng·h/mL
BaF3 [12]
  inhibition in vivo at 30 mg/kg: 88%
[13]
  inhibition: > 80%
[14]
  IC50: 0.6 nM
[15]
  AUC(0-inf): 213 ng·h/mL
BaF3 [16]
  IC50: 0.3 nM
[17]
  inhibition: < 50%
[18]
  CL/F: 158 mL/min/kg
[19]
  Cmax: 1500 ng/mL
BaF3 [20]
  IC50: 1.6 nM
[21]
  inhibition: < 50%
[22]
  inhibition: < 50%
[23]
  inhibition: < 50%
[24]
  Activity: Non-Toxic
[25]
  inhibition: < 50%
[26]
  inhibition: < 50%
[27]
  Activity: Non-Toxic
[28]
  Activity: Non-Toxic
[29]
  bioavailability: 49%
[30]
  inhibition: < 50%
[31]
  Vd: 40 L/kg
[32]
  inhibition: < 50%
BaF3 [33]
  IC50: 10.9 nM
[34]
  IC50: > 10000 nM
[35]
  inhibition: > 80%
[36]
  inhibition: > 80%
[37]
  inhibition: > 80%
[38]
  inhibition: > 80%
BaF3 [39]
  inhibition in vivo at 15 mg/kg: 85%
